Assay results: patent publication EP4682141A1, “TRICYCLIC COMPOUND” (ONO Pharmaceutical Co., Ltd., priority 2023, dated 2024)

Legend:
[1] = test system: diabetic renal disease model rat; experiment: in vivo drug efficacy in diabetic renal disease model rat (single kidney removal, saline); parameters: species or system SDT.Cg-Leprfa/JttJcl (SDT-fatty rat); conditions: 8 weeks after the start of administration
Procedure: A diabetic renal disease model was created by extracting the unilateral kidneys of male SDT.Cg-Leprfa/JttJcl (SDT-fatty/Jcl, CLEA Japan) rats, a type 2 diabetes model, and then giving saline. The in vivo drug efficacy of the present compound on diabetic renal disease was evaluated in this model.
Male SDT.Cg-Leprfa/JttJcl (SDT-fatty rat) aged 4 weeks was purchased from CLEA Japan, and subjected to experiments. The animals were fed ad libitum with Purina5008 (Japan SLC) from the time of arrival, and watered ad libitum. Water was given from the arrival and until 1 week from single kidney removal, and a 0.2 w/v% NaCl solution was given 1 week after single kidney removal.
After acclimation breeding, the body weight was measured, and buprenorphine was subcutaneously administered at a dose of 0.01 mg/kg under inhalation anesthesia with isoflurane (Mayran). After removing hair from the right abdomen of the rat, the right abdomen was disinfected with ethanol and isodine for disinfection and incised to expose the right kidney. The renal artery and vein was ligated with a suture to stop the blood flow, the right kidney was totally removed, and the incision was sutured. The following day, analgesic buprenorphine was administered subcutaneously at a dose of 0.01 mg/kg.
Grouping was performed 3 weeks after single kidney removal. The mice were divided into groups so that the average of the above parameters was almost equal between the groups on the basis of body weight, serum urea nitrogen (BUN), serum creatinine (S-CRE), serum total cholesterol (T-CHO), blood glucose level (GLU), neutral fat (TG), urinary protein (U-TP), urinary albumin (U-ALB), and creatinine clearance (CCr).
All of the compounds of Examples 25-7, 10, 11 and 12 were orally administered once a day for 8 weeks in combination with losartan (30 mg/kg), a renin angiotensin system inhibitor, and canagliflozin (10 mg/kg), a glucose co-transporter inhibitor. The compounds of Examples 25-7, 10, 11 and 12, and losartan were each dissolved in water for injection (Otsuka Pharmaceutical), and canagliflozin was suspended in a 0.5% methyl cellulose solution (Fujifilm Wako Pure Chemical Corporation) to prepare an administration solution. In the Control-1 group, water for injection which is a vehicle of losartan or the compound of Examples 25-7, 10, 11 or 12 was orally administered at 5 mL/kg, and a 0.5% methylcellulose solution which is a vehicle of canagliflozin was orally administered at 2.5 mL/kg once a day for 8 weeks. In the Control-2 group, losartan (30 mg/kg) dissolved in water for injection was orally administered at an administration volume of 2.5 mL/kg, canagliflozin (10 mg/kg) suspended in a 0.5% methyl cellulose solution was orally administered at an administration volume of 2.5 mL/kg, and water for injection which is a vehicle of the compounds of Examples 25-7, 10, 11 and 12 was orally administered at an administration volume of 2.5 mL/kg once a day for 8 weeks. The administration dose is described in Table 8.
Blood was collected by puncturing the tail vein of the rat with an injection needle. Blood was collected in a tube for serum separation (BD Microtainer) and centrifuged to obtain serum. Urine was collected for 24 hours in a metabolic cage for rat under conditions in which a solid feed and water can be freely taken. The obtained urine sample was centrifuged, and the supernatant was subjected to measurement. The concentrations of BUN, S-CRE, T-CHO, TG, U-ALB, U-TP, GLU and U-CRE were measured by an automatic analyzer Hitachi 7180 (Hitachi High-Tech).

[2] = test system: Alport syndrome model mice; experiment: in vivo drug efficacy in Alport syndrome model mice; parameters: species or system COL4A5 homozygote knockout mice; conditions: 16 weeks after the start of administration
Procedure: The in vivo drug efficacy of the present compound on Alport syndrome was evaluated using COL4A5 (causative gene of Alport syndrome) knockout mice.
Male wild-type mice and female COL4A5 hetero knockout mice were naturally crossed to obtain offspring. Genotypes of the offspring were confirmed and male COL4A5 homozygote knockout mice were obtained.
The obtained animals were fed ad libitum with CE-2 (CLEA Japan), and watered ad libitum.
The mice were divided into groups using a statistical analysis system EXSUS10.0 so that the body weight and the urine albumin/urine creatinine value at the time of 6 weeks of age were almost uniform in each group.
The test substance and water for injection (Otsuka Pharmaceutical) as a vehicle were orally administered at 10 mL/kg once a day for 17 weeks.
The Control-3 group was orally administered water for injection at 10 mL/kg once a day for 17 weeks. In the Control-4 group, water for injection and an administration solution of irbesartan which is a renin angiotensin system inhibitor were mixed in equal amounts at 5 mL/kg each, and orally administered once a day for 17 weeks.
The administration dose is described in Table 11.
Blood collection was performed by cutting the tail vein of the mice a little with a razor and using a hematocrit capillary. Blood was centrifuged to obtain plasma. Urine was collected for about 16 hours in a metabolic cage for mouse under conditions in which a solid feed and water can be freely taken. The obtained urine sample was centrifuged, and the supernatant was subjected to measurement. Urine albumin (U-ALB) and urine creatinine (U-CRE) concentrations were measured by an automatic analyzer Hitachi 7180 (Hitachi High-Tech), and the creatinine concentration in plasma was measured using LabAssay Creatinine (Fujifilm Wako Shibayagi).

[3] = test system: rat 5/6 kidney-removed model; experiment: in vivo drug efficacy on renal damage in rat 5/6 kidney-removed model; parameters: species or system Jcl: Wistar (Wistar) rats; conditions: after 8 weeks from the start of administration
Description: The obtained urine sample was centrifuged, and the supernatant was subjected to measurement.

Row | Compound | Serum creatinine mean ([1]; 0.01 mg/kg orally once a day for 8 weeks in combination with losartan (30 mg/kg) and canagliflozin (10 mg/kg)) | Serum creatinine mean ([1]; 0.03 mg/kg orally once a day for 8 weeks in combination with losartan (30 mg/kg) and canagliflozin (10 mg/kg)) | Plasma creatinine mean ([2]; 1 mg/kg orally once a day for 17 weeks, concomitant drug Irbesartan (50 mg/kg)) | Plasma creatinine mean ([2]; 3 mg/kg orally once a day for 17 weeks, concomitant drug cell empty) | Amount of albumin excreted in urine mean ([3]; 0.01 mg/kg orally once a day for 8 weeks) | Amount of albumin excreted in urine mean ([3]; 0.03 mg/kg orally once a day for 8 weeks) | Serum creatinine mean ([1]; 0.1 mg/kg orally once a day for 8 weeks in combination with losartan (30 mg/kg) and canagliflozin (10 mg/kg)) | Plasma creatinine mean ([2]; 0.1 mg/kg orally once a day for 17 weeks, single agent) | Plasma creatinine mean ([2]; 0.3 mg/kg orally once a day for 17 weeks, single agent)
1 | Cc1c(C(=O)O)ccc2c1O[C@H]1C[C@@H](O)[C@H](/C=C/C[C@@](C)(O)CCCC(F)(F)F)[C@H]1CC2 [Example 12, (1R,2R,3aS,10aR)-2-hydroxy-5-methyl-1-[(1E,4S)-8,8,8-trifluoro-4-hydroxy-4-methyl-1-octen-1-yl]-2,3,3a,9,10,10a-hexahydro-1H-benzo[b]cyclopenta[f]oxepine-6-carboxylic acid] | 0.51 mg/dL | 0.45 mg/dL | 0.709 mg/dL | 0.722 mg/dL | 66.09 mg/24 h | 44.16 mg/24 h |  |  | 
2 | CC(C)(c1ccccc1)C(O)/C=C/[C@H]1CC[C@@H]2Oc3c(ccc(C(=O)O)c3F)CC[C@@H]21 (stereo partly drawn) [Example 25-7, (1R,3aS,10aR)-5-fluoro-1-[(1E,3ξ)-3-hydroxy-4-methyl-4-phenyl-1-penten-1-yl]-2,3,3a,9,10,10a-hexahydro-1H-benzo[b]cyclopenta[f]oxepine-6-carboxylic acid] |  |  |  |  |  |  | 0.45 mg/dL | 0.758 mg/dL | 0.628 mg/dL
